Source: patent US8410153B2, “Naphthalene isoxazoline invertebrate pest control agents” (E.I. du Pont de Nemours and Company, priority 2007, dated 2013)

Tests used:
Format in all cases: in vivo
[1] = system: fall armyworm (Spodoptera frugiperda); experiment: Test B: control of fall armyworm on corn (maize) plant, foliar spray; settings: sprayed at 50 ppm
Summary of the method: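 4-5-day-old corn plants pre-infested with 10-15 1-day-old larvae on insect diet, then sprayed with compound at 50 ppm in 10% acetone/90% water with 300 ppm surfactant, three replicates. Held 6 days at 25° C, 70% RH; feeding damage assessed visually and mortality rated.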

[2] = system: diamondback moth (Plutella xylostella); experiment: Test A: control of diamondback moth on radish plant, foliar spray; settings: sprayed at 50 ppm, held 6 days
Summary of the method: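 Radish plants 12–14 days old, pre-infested with about 50 neonate larvae, sprayed at 50 ppm in 10% acetone/water with 300 ppm X-77 surfactant; three replicates. After 6 days at 25° C and 70% RH, feeding damage was scored visually and mortality counted.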

[3] = system: western flower thrips (Frankliniella occidentalis); experiment: Test E: control of western flower thrips on Soleil bean plant, contact and/or systemic; settings: held 6 days
Summary of the method: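 5–7-day-old Soleil bean plants were sprayed at 250 or 50 ppm in 10% acetone/90% water with 300 ppm X-77 surfactant, three replicates. After drying 1 h, 22–27 adult thrips were added per unit. Mortality and plant damage were rated after 6 days at 25 °C and 45–55% RH.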

Measured: levels of control efficacy (20% or less feeding damage or 80% or more mortality)

CS(=O)(=O)CCNC(=O)c1ccc(C2=NOC(c3cc(F)cc(C(F)(F)F)c3)(C(F)(F)F)C2)c2ccccc12 (racemic) [Compound 134]
very good to excellent: [1] | [2] | [3]; sprayed at 50 ppm | [3]; sprayed at 250 ppm

O=C(CNC(=O)c1ccc(C2=NOC(c3cc(F)cc(C(F)(F)F)c3)(C(F)(F)F)C2)c2ccccc12)NCC(F)(F)F (racemic) [Compound 135]
very good to excellent: [1] | [2] | [3]; sprayed at 250 ppm

O=C(CNC(=O)c1ccc(C2=NOC(c3cc(Cl)cc(OC(F)(F)F)c3)(C(F)(F)F)C2)c2ccccc12)NCC(F)(F)F (racemic) [Compound 136]
very good to excellent: [1] | [2] | [3]; sprayed at 50 ppm

CNC(=O)CNC(=O)c1ccc(C2=NOC(c3cc(Br)cc(C(F)(F)F)c3)(C(F)(F)F)C2)c2ccccc12 (racemic) [Compound 143]
very good to excellent: [1] | [2] | [3]; sprayed at 50 ppm

CCNC(=O)CNC(=O)c1ccc(C2=NOC(c3cc(Br)cc(C(F)(F)F)c3)(C(F)(F)F)C2)c2ccccc12 (racemic) [Compound 144]
very good to excellent: [1] | [2] | [3]; sprayed at 50 ppm

O=C(CNC(=O)c1ccc(C2=NOC(c3cc(Cl)cc(Cl)c3)(C(F)(F)F)C2)c2ccccc12)NCC(F)(F)F (centres unmarked) [Compound 1]
very good to excellent: [1] | [2] | [3]; sprayed at 50 ppm | [3]; sprayed at 250 ppm

CC(C)(NC(=O)c1ccc(C2=NOC(c3cc(Cl)cc(Cl)c3)(C(F)(F)F)C2)c2ccccc12)C(=O)NCC(F)(F)F (centres unmarked) [Compound 4]
very good to excellent: [1] | [2] | [3]; sprayed at 50 ppm | [3]; sprayed at 250 ppm

CC(C)NC(=O)CNC(=O)c1ccc(C2=NOC(c3cc(Cl)cc(Cl)c3)(C(F)(F)F)C2)c2ccccc12 (centres unmarked) [Compound 5]
very good to excellent: [1] | [2] | [3]; sprayed at 50 ppm | [3]; sprayed at 250 ppm

CC(C)CNC(=O)CNC(=O)c1ccc(C2=NOC(c3cc(Cl)cc(Cl)c3)(C(F)(F)F)C2)c2ccccc12 (centres unmarked) [Compound 6]
very good to excellent: [1] | [2] | [3]; sprayed at 50 ppm | [3]; sprayed at 250 ppm

CCN(C)C(=O)CNC(=O)c1ccc(C2=NOC(c3cc(Cl)cc(Cl)c3)(C(F)(F)F)C2)c2ccccc12 (centres unmarked) [Compound 7]
very good to excellent: [1] | [2] | [3]; sprayed at 50 ppm | [3]; sprayed at 250 ppm

CCNC(=O)CNC(=O)c1ccc(C2=NOC(c3cc(Cl)cc(Cl)c3)(C(F)(F)F)C2)c2ccccc12 (centres unmarked) [Compound 8]
very good to excellent: [1] | [2] | [3]; sprayed at 50 ppm | [3]; sprayed at 250 ppm

O=C(NCCO)c1ccc(C2=NOC(c3cc(Cl)cc(Cl)c3)(C(F)(F)F)C2)c2ccccc12 (centres unmarked) [Compound 11]
very good to excellent: [1] | [2] | [3]; sprayed at 50 ppm | [3]; sprayed at 250 ppm

O=C(CNC(=O)c1ccc(C2=NOC(c3cc(Cl)cc(Cl)c3)(C(F)(F)F)C2)c2ccccc12)NCCF (centres unmarked) [Compound 12]
very good to excellent: [1] | [2] | [3]; sprayed at 50 ppm | [3]; sprayed at 250 ppm

CSCCNC(=O)c1ccc(C2=NOC(c3cc(Cl)c(Cl)c(Cl)c3)(C(F)(F)F)C2)c2ccccc12 (centres unmarked) [Compound 15]
very good to excellent: [1] | [2] | [3]; sprayed at 50 ppm | [3]; sprayed at 250 ppm

CSCCNC(=O)c1ccc(C2=NOC(c3cc(Cl)cc(Cl)c3)(C(F)(F)F)C2)c2ccccc12 (centres unmarked) [Compound 17]
very good to excellent: [1] | [2] | [3]; sprayed at 50 ppm | [3]; sprayed at 250 ppm

C[S+]([O-])CCNC(=O)c1ccc(C2=NOC(c3cc(Cl)cc(Cl)c3)(C(F)(F)F)C2)c2ccccc12 (centres unmarked) [Compound 18]
very good to excellent: [1] | [2] | [3]; sprayed at 50 ppm | [3]; sprayed at 250 ppm

O=C(CNC(=O)c1ccc(C2=NOC(c3cc(Cl)c(Cl)c(Cl)c3)(C(F)(F)F)C2)c2ccccc12)NCC(F)(F)F (centres unmarked) [Compound 19]
very good to excellent: [1] | [2] | [3]; sprayed at 50 ppm | [3]; sprayed at 250 ppm

CS(=O)(=O)CCNC(=O)c1ccc(C2=NOC(c3cc(Cl)cc(Cl)c3)(C(F)(F)F)C2)c2ccccc12 (centres unmarked) [Compound 20]
very good to excellent: [1] | [2] | [3]; sprayed at 50 ppm | [3]; sprayed at 250 ppm

CSCCNC(=O)c1ccc(C2=NOC(c3cc(Br)cc(Br)c3)(C(F)(F)F)C2)c2ccccc12 (centres unmarked) [Compound 21]
very good to excellent: [1] | [2] | [3]; sprayed at 50 ppm | [3]; sprayed at 250 ppm

CSCCCNC(=O)c1ccc(C2=NOC(c3cc(Cl)cc(Cl)c3)(C(F)(F)F)C2)c2ccccc12 (centres unmarked) [Compound 22]
very good to excellent: [1] | [2] | [3]; sprayed at 50 ppm | [3]; sprayed at 250 ppm

O=C(CNC(=O)c1ccc(C2=NOC(c3cc(Br)cc(Br)c3)(C(F)(F)F)C2)c2ccccc12)NCC(F)(F)F (centres unmarked) [Compound 23]
very good to excellent: [1] | [2] | [3]; sprayed at 50 ppm | [3]; sprayed at 250 ppm

CC(C)(C)NC(=O)CNC(=O)c1ccc(C2=NOC(c3cc(Cl)cc(Cl)c3)(C(F)(F)F)C2)c2ccccc12 (centres unmarked) [Compound 24]
very good to excellent: [1] | [2] | [3]; sprayed at 250 ppm

CCC(CC)NC(=O)CNC(=O)c1ccc(C2=NOC(c3cc(Cl)cc(Cl)c3)(C(F)(F)F)C2)c2ccccc12 (centres unmarked) [Compound 25]
very good to excellent: [1] | [2] | [3]; sprayed at 250 ppm
